Data from patent publication US20200297798A1, “KEY AMINO ACID SITES […] EXPORT OF NUC[…] INFLUENZA A AND B VIRUSES AND USE THEREOF AS ANTI-INFLUENZA VIRUS DRUG TARGETS” (INSTITUTE OF MICROBIOLOGY, CHINESE ACADEMY OF SCIENCES, priority 2017, published 2020).
“And” between values parts separate entries of the source, which are not always exact repeats. Equal values may be shown once. Read-outs that look alike come from different tables or passages of the source.

Columns and labels:
[1] = tested on: influenza A virus WSN A/WSN/1933 (H1N1); parameters: species or system BALB/c mice; details: mouse, in vivo
[2] = biological target: influenza A virus nucleoprotein (ANP) (Influenza A virus, UniProt P15682); details: ITC; protein ANP
Sequence of influenza A virus nucleoprotein (ANP) (P15682 whole entry): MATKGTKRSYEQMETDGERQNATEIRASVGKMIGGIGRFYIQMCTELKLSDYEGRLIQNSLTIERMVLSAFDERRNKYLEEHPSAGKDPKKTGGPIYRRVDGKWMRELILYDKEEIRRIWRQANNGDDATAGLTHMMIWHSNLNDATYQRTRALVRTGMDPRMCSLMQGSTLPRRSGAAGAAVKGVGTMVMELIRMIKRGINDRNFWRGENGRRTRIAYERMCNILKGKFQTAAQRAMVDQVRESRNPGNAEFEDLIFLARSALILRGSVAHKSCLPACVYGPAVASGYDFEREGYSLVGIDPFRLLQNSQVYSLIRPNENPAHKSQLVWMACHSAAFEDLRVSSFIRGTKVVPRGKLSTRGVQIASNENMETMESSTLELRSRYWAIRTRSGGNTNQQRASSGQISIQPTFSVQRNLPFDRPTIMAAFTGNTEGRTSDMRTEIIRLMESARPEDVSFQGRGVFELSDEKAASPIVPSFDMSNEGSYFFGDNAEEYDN

binding of ANP to CRM1 = binding of ANP to CRM1 (Influenza A virus, UniProt P15682)
Sequence of binding of ANP to CRM1 (P15682 whole entry): as above

binding of BNP to CRM1 = binding of BNP to CRM1 (Influenza B virus, UniProt P04665)
Sequence of binding of BNP to CRM1 (P04665 whole entry): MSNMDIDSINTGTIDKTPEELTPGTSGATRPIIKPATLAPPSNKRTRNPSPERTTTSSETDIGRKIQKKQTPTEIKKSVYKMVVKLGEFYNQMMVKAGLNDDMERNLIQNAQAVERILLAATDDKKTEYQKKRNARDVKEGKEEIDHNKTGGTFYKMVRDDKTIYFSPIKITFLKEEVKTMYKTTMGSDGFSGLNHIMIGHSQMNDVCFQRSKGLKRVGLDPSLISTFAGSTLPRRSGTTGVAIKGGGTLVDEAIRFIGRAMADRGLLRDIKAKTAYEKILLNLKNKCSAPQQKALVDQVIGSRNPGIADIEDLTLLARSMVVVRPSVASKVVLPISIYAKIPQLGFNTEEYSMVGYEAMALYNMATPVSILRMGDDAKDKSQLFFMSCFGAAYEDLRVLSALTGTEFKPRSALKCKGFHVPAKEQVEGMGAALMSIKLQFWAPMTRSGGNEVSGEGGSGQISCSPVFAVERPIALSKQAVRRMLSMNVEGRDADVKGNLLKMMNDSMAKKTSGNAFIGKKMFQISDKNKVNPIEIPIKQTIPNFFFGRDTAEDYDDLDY

[3] = biological target: influenza B virus nucleoprotein (BNP) (Influenza B virus, UniProt P04665); details: ITC; protein BNP
Sequence of influenza B virus nucleoprotein (BNP) (P04665 whole entry): as above

influenza B virus Lee40 [4] = tested on: influenza B virus Lee40; parameters: species or system BALB/c mice; details: mouse, in vivo
[5] = tested on: influenza A virus WSN A/WSN/1933 (H1N1); details: A549 cells, MOI=0.1, 12 ng naproxen per dish, FIG. 8A
influenza B virus Lee40 [6] = details: A549 cells, MOI=1, 12 ng naproxen per dish, FIG. 8B

## COc1ccc2cc(C(C)C(=O)O)ccc2c1 (stereo not drawn) [naproxen, (+) α-methyl-6-methoxy-2-naphthaleneacetic acid]
[1]
  body weight course after infection: slowly recovered
  lung injuries (macroscopical lesions): lung injuries were milder
  viral load of the lung, treatment effect: better
[2]
  n (stoichiometry): 1.23
  ΔH: -1.33 kcal/mol
  ΔS: 64.76 J/mol · K
Binding of ANP to CRM1
  binding of ANP to CRM1: did not bind to CRM1
Binding of BNP to CRM1
  binding of BNP to CRM1: did not bind to CRM1
[3]
  n (stoichiometry): 0.93
  ΔH: -0.325 kcal/mol
  ΔS: 138.40 J/mol · K
Influenza B virus Lee40 [4]
  body weight course after infection: slowly recovered
  lung injuries (macroscopical lesions): lung injuries were milder
  viral load of the lung, treatment effect: better
Influenza B virus Lee40 [4]; ip
  survival rate: 75% and 100%
[5]
  virus titer versus untreated cells: significant decrease in virus titer
Influenza B virus Lee40 [6]
  virus titer versus untreated cells: significant decrease in virus titer

## CCOC(=O)C1=C[C@@H](OC(CC)CC)[C@H](NC(C)=O)[C@@H](N)C1 [oseltamivir]
[1]
  body weight course after infection: slowly recovered
  lung index (lung mass/body weight): lung indexes were lower
  lung injuries (macroscopical lesions): lung injuries were milder
  survival rate: 100%
  viral load of the lung, treatment effect: better
Influenza B virus Lee40 [4]
  body weight course after infection: slowly recovered
  survival rate: 37.5%
